{"source": "patent US7744927B2", "about": "“Methods of promoting hematopoietic and mesenchymal cell proliferation and differentiation” (University of Southern California, priority 1997, dated 2010)", "key": {"[1]": {"test_system": "chick chorioallantoic membrane", "details": "in vivo; cited from earlier work"}, "[2]": {"test_system": "murine peritoneal macrophages", "test": "Respiratory burst (hydrogen peroxide generation), murine peritoneal macrophages", "assay_type": "cell-based", "details": "alone and in response to PMA 10 ng/ml; 4 hours exposure", "description": "The respiratory burst of leukocytes (macrophages and polymorphonuclear neutrophils) is one component of the mediator system used to kill bacteria. As with phagocytosis, the level of this respiratory burst activity in resident macrophages is low. […] Studies were conducted to assess the effect of in vitro exposure of murine or rat peritoneal macrophages and human peripheral blood mononuclear cells (PBMC) to various concentrations of AII on the capacity to generate hydrogen peroxide via the respiratory burst system. For the human studies, five different donors were examined.\nThe murine or rat peritoneal cells were harvested by lavage with 5-15 ml of cold PBS with 0.5% bovine serum albumin. The human PBMC were harvested by venipuncture from normal human volunteers and isolated from peripheral blood by Ficoll Hypaque density centrifugation. After isolation, the cells were resuspended at 1×10^6 cells/ml and placed at 100 μl per well into 96 well plates. The cells were incubated with various concentrations of AII or AII analogues for 4 hours at 37° C. The cells were then preloaded with a fluorescent probe for hydrogen peroxide, 2,7 dichlorofluorescein acetate, which is nonfluorescent in the absence of hydrogen peroxide. […] One hour after stimulation the level of fluorescence produced was measured on a Cytofluor 2350 multiwell fluorometer."}, "AT2 receptor": {"test_system": "AT2 receptor", "details": "cited from earlier work"}, "Human PBMC": {"test_system": "Human PBMC", "test": "Proliferation of human PBMC, 3H-thymidine incorporation with or without pokeweed mitogen", "assay_type": "cell-based", "details": "for Stimulation Index (SI): stimulated counts / counts without mitogen", "description": "Upon stimulation of lymphocytes with mitogen or antigen, these cells undergo blastogenesis and proliferation. In the absence of such stimuli, proliferation is seldom observed. One method to measure cellular proliferation in a short term assay is via measurement of the amount of the nucleotide thymidine that is incorporated into newly synthesized DNA. The effect of AII on the proliferation of human PBMC in the presence and absence of pokeweed mitogen (“PWM”) was assessed.\nHuman PBMC were collected from normal volunteers and isolated via Ficoll Hypaque (Sigma Chemical, St. Louis) density centrifugation. After isolation of the buffy coat, the cells were washed 3× to remove the Ficoll Hypaque, counted in trypan blue (0.01%) and resuspended at a concentration of 1×10^6 cells/ml in RPMI 1640 containing 10% fetal calf serum and antibiotics. A 100 μl aliquot of cells was added to each well. Thereafter, various concentrations (0.1 to 1000 μg/ml final concentration) of AII in RPMI 1640 containing 10% FCS and antibiotics were added to various wells in triplicate. To the appropriate wells, PWM (20 μg/ml final concentration) was added. These plates were incubated at 37° C. in 5% CO2 for 48 hours. Subsequently, 0.5 μCi of ^3H-thymidine was added to each well, which were incubated at 37° C. for an additional 24 hours prior to harvest by a multiwell automated sample harvester (Skatron) onto glass fiber filters. These filters were dried, placed in scintillation fluid and the amount of thymidine incorporated was determined by beta counting."}, "[3]": {"test_system": "cells that express alkaline phosphatase (rat bone marrow MSC)", "test": "Alkaline phosphatase expression by MSC in osteogenic medium", "assay_type": "cell-based, Sprague Dawley rats", "details": "osteogenic medium 4 days, absorbance at 405 nm", "description": "Mesenchymal stem cells isolated from bone marrow and grown under appropriate conditions can express characteristics of multiple cell types, including cells involved in the generation of bone, cartilage, muscle and tendons. Osteogenic cells (cells that can form bone tissue) express the enzyme alkaline phosphatase when cultured in medium that drives them toward their osteogenic differentiation.\nBone marrow from female Sprague Dawley rats were harvested by flushing the femur with medium. The cells were placed in culture dishes 9 […], allowed to adhere overnight, and then placed in DMEM-LG medium containing antibiotics and 10% fetal calf serum together with varying concentrations of AII. At various times after culture initiation, the cells were washed with Tyrode's buffer and placed in osteogenic medium (DMEM-LG containing 10% fetal calf serum, 100 nM dexamethasone and 0.05 mM ascorbic acid) for 4 days prior to assessment of the level of alkaline phosphatase activity per well. Briefly, the wells were washed with Tyrode's buffer and 1 ml alkaline phosphatase substrate solution (50 mM glycine, pH 10.5, containing 1 mM magnesium chloride and 2.5 mM p-nitrophenyl phosphate) to each well. […] The absorbance of the resultant mixture at 405 nm was then determined via spectroscopy. The level of alkaline phosphatase activity is expressed as the level of absorbance per culture dish."}}}
{"substance": "Asp-Arg-Val-Tyr-Ile-His-Pro-Phe [AII, known pressor agent, commercially available]", "values": [{"measurement": "angiogenic activity", "setting": "[1]", "value": "angiogenic"}, {"measurement": "ability to generate hydrogen peroxide (respiratory burst)", "setting": "[2]", "value": "increased the ability of leukocytes to generate hydrogen peroxide"}, {"measurement": "affinity for AT2 than AT1", "setting": "AT2 receptor", "value": 100, "unit": "times"}, {"measurement": "Stimulation Index (SI)", "setting": "Human PBMC; AII Concentration 0.1, Experiment 1 (donor 1)", "value": 3.54}, {"measurement": "Stimulation Index (SI)", "setting": "Human PBMC; AII Concentration 0.1, Experiment 2 (donor 2)", "value": 38.13}, {"measurement": "cpm 3H-Thymidine Incorporated", "setting": "Human PBMC; AII Concentration 0.1, PWM, Experiment 1 (donor 1)", "value": 1329.0, "unit": "cpm"}, {"measurement": "cpm 3H-Thymidine Incorporated", "setting": "Human PBMC; AII Concentration 0.1, PWM, Experiment 2 (donor 2)", "value": 2135.0, "unit": "cpm"}, {"measurement": "Stimulation Index (SI)", "setting": "Human PBMC; AII Concentration 1, Experiment 1 (donor 1)", "value": 5.88}, {"measurement": "Stimulation Index (SI)", "setting": "Human PBMC; AII Concentration 1, Experiment 2 (donor 2)", "value": 62.42}, {"measurement": "cpm 3H-Thymidine Incorporated", "setting": "Human PBMC; AII Concentration 1, PWM, Experiment 1 (donor 1)", "value": 1411.2, "unit": "cpm"}, {"measurement": "cpm 3H-Thymidine Incorporated", "setting": "Human PBMC; AII Concentration 1, PWM, Experiment 2 (donor 2)", "value": 2996.0, "unit": "cpm"}, {"measurement": "Stimulation Index (SI)", "setting": "Human PBMC; AII Concentration 10, Experiment 1 (donor 1)", "value": 5.34}, {"measurement": "Stimulation Index (SI)", "setting": "Human PBMC; AII Concentration 10, Experiment 2 (donor 2)", "value": 75.88}, {"measurement": "cpm 3H-Thymidine Incorporated", "setting": "Human PBMC; AII Concentration 10, PWM, Experiment 1 (donor 1)", "value": 1427.0, "unit": "cpm"}, {"measurement": "cpm 3H-Thymidine Incorporated", "setting": "Human PBMC; AII Concentration 10, PWM, Experiment 2 (donor 2)", "value": 3946.0, "unit": "cpm"}, {"measurement": "Stimulation Index (SI)", "setting": "Human PBMC; AII Concentration 100, Experiment 1 (donor 1)", "value": 11.41}, {"measurement": "Stimulation Index (SI)", "setting": "Human PBMC; AII Concentration 100, Experiment 2 (donor 2)", "value": 69.39}, {"measurement": "cpm 3H-Thymidine Incorporated", "setting": "Human PBMC; AII Concentration 100, PWM, Experiment 1 (donor 1)", "value": 1552.1, "unit": "cpm"}, {"measurement": "cpm 3H-Thymidine Incorporated", "setting": "Human PBMC; AII Concentration 100, PWM, Experiment 2 (donor 2)", "value": 3747.0, "unit": "cpm"}, {"measurement": "Stimulation Index (SI)", "setting": "Human PBMC; AII Concentration 1000, Experiment 1 (donor 1)", "value": 15.48}, {"measurement": "Stimulation Index (SI)", "setting": "Human PBMC; AII Concentration 1000, Experiment 2 (donor 2)", "value": 89.63}, {"measurement": "cpm 3H-Thymidine Incorporated", "setting": "Human PBMC; AII Concentration 1000, PWM, Experiment 1 (donor 1)", "value": 1551.5, "unit": "cpm"}, {"measurement": "cpm 3H-Thymidine Incorporated", "setting": "Human PBMC; AII Concentration 1000, PWM, Experiment 2 (donor 2)", "value": 4302.0, "unit": "cpm"}, {"measurement": "thymidine incorporated in response to PWM", "setting": "Human PBMC; PWM 20 μg/ml, two donors", "value": "increase the amount of thymidine incorporated"}, {"measurement": "thymidine incorporation", "setting": "Human PBMC; absence of mitogen", "value": "no increase in thymidine incorporation"}, {"measurement": "proliferation of cells that express alkaline phosphatase", "setting": "[3]", "value": "can accelerate the proliferation of cells that express alkaline phosphatase"}]}
